Data set [1] deals with T1, yeast α-GLy (α-glucosidase, Sigma G0660) (Saccharomyces cerevisiae, UniProt P53341).
T1 construct: purchased Sigma G0660
The experiment in a line: biochemical. In kind it is biochemical. The note with it: yeast α-glucosidase; for IC50: 37°C, pH 6.8. How it is done: S1. Materials and Methods […]
glucosidase inhibition assay. α-Glucosidase enzyme inhibition assay was carried out in a 96-well microplate. The method’s principle based on the hydrolyzed reaction of 4-nitrophenyl-α-D-glucopiranoside with α-glucosidase enzyme into yellow 4- […]
p-Nitrophenyl α-D-Glucoside a- Gl ucosidas e α-D-Glucose + p- Nitrophenol α-Glucosidase inhibitory activity assay was performed following the modified method of Pistia Brueggeman and Hollingsworth with slight modification. Quinopimaric […]
concentrations of 256, 64, 16, 4 and 1 µg/mL. In a 96-well plate, a reaction mixture containing 20 μL of phosphate buffer (100 mM; pH 6.8), 20 μL of α-glucosidase (0.3 U/mL, Sigma G0660) (this concentration was determined by a series of α-glucosidase […]
linearity between the enzyme concentration and the absorbance of yellow color mixture after reaction which was approximately 5-fold higher than the back ground and at least […]
concentrations was pre-incubated for 10 min at 37°C. Then 20 μL of […] p-nitrophenyl α-D-glucopyranoside (Sigma N1377) was added to the mixture as a substrate. After further incubation at 37°C for 30 min, the reaction was stopped by adding 80 μL of 0.1 […]
solution were prepared using the phosphate buffer […]; pH 6.8. […]
as a positive control and water as negative control. The yellow color produced was quantitated by colorimetric analysis and reading the absorbance at 410 nm. Each experiment was performed in triplicates, along with appropriate blanks. The solvent DMSO was use as negative control to evaluate its effect on α-glucosidase activity. […]
or substrate in negative control. Back ground was determined by volume of buffer as […]
The % inhibition has been obtained using the formula:
% inhibition = {Absorbance (control) –Absorbance (sample)}/Absorbance (control) IC50 value is defined as the concentration of samples inhibiting 50% of α-glucosidase activity under the stated assay conditions. […]

A short description of data set [2]: DPPH radical scavenging assay. The note with it: DPPH 0.1 mM in methanol, 25°C, 30 min. How it is done:
DPPH radical scavenging assay as described by Ha. The hydrogen atom donating ability of the plant extractives was determined by the decolorization of methanol solution of 2,2-diphenyl-1-picrylhydrazyl (DPPH). DPPH produces purple color in methanol solution and fades to shades of yellow color in the presence of antioxidants. […]
DPPH (0.1 mM) was diluted in methanol. 200 μL of this solution was added to 1.3 μL of various concentrations of compounds in DMSO (256.0, 64.0, 16.0, and 4.0 μg/mL). The mixture was performed by a 96-well plate at 25 °C in 30 min. Then, absorbance was determined by Epoch™ Microplate Spectrophotometer (at 517 nm). The percentage of DPPH quenching activity was computed by the following formula:
Inhibitory percentage SC (%) = [(Ao - A1)/Ao] × 100. where AO was defined as the absorbance of control reaction, and A1 represented for the absorbance in the presence of test or standard sample. Each experiment was repeated three times. Quercetin was used as a reference compound. […]
In general terms: The DPPH test is a chemical assay of radical scavenging.

Setting [3] is: IC50 ± SE, α-glucosidase inhibition.
Setting [4] is: read-out: IC50 ± SE, α-glucosidase inhibition.

The structures appear in SMILES notation. Values after ≈ are worked out from the molar mass of the structure shown. Where two headings read alike, the source gives them in different places. Bounds are passed on as bounds.

The term IC50 denotes the concentration that gives 50% inhibition. In general, melting point refers to the temperature of the solid-liquid transition.

T1 sequence (P53341 whole entry): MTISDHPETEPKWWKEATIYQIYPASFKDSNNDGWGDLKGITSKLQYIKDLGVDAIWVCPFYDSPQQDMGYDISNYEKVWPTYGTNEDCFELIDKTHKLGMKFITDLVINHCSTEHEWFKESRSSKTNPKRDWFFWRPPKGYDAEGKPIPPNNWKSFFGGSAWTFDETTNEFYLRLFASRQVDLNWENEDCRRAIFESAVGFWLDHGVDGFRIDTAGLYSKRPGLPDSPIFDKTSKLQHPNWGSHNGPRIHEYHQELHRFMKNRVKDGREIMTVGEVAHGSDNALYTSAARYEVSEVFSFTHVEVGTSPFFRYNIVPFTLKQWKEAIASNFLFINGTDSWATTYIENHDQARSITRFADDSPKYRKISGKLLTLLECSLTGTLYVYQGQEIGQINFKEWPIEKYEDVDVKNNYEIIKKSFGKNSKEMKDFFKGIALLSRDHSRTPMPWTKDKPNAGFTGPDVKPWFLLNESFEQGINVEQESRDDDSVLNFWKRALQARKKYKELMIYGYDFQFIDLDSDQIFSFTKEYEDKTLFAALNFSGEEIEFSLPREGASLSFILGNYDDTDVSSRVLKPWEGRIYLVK

With `COC(=O)[C@]1(C)CCC[C@]2(C)[C@H]3C[C@@H]4[C@H]5[C@@H]6Cc7c([nH]c8ccccc78)[C@H]5[C@@]3(CC[C@H]21)C[C@@]4(C(C)C)O6` [Compound 33], in data set [1] (setting [3]), the IC50 came to 65.98 ± 0.03 µM.
In data set [1] (setting [3]), `COC(=O)[C@]1(C)CCC[C@]2(C)[C@H]3C[C@H]4C(C(C)C)=C[C@]3(CC[C@H]21)[C@@H]1c2[nH]c3ccccc3c2-c2c([nH]c3ccccc23)[C@@H]14` [Compound 34] gave an IC50 above 255 µM.
Turning to `COC(=O)c1c(C)[nH]c2c3c(c(O)cc12)[C@H]1C[C@@H]2[C@@]4(C)CCC[C@@](C)(C(=O)O)[C@@H]4CC[C@@]32C=C1C(C)C` [Compound 35], the IC50 in data set [1] (setting [4]) was found to be 7.95 ± 0.2 µM.
Same read-out and setting: next, `COC(=O)c1c(C)[nH]c2c3c(c(O)cc12)[C@H]1C[C@@H]2[C@@]4(C)CCC[C@@](C)(C(=O)OC)[C@@H]4CC[C@@]32C=C1C(C)C` [Compound 36]: 8.94 ± 0.96 µM.
Still for that read-out and setting: next, `COC(=O)c1c(C)[nH]c2c3c(c(OC(C)=O)cc12)[C@H]1C[C@@H]2[C@@]4(C)CCC[C@@](C)(C(=O)OC)[C@@H]4CC[C@@]32C=C1C(C)C` [Compound 37]: 7.28 ± 0.4 µM.
As to `COC(=O)[C@]1(C)CCC[C@]2(C)[C@H]3C[C@@H]4[C@H]5[C@@H]6CCC(=O)N[C@H]5[C@@]3(CC[C@H]21)C[C@@]4(C(C)C)O6` [Compound 39], the IC50 in data set [1] (setting [3]) worked out at 44.8 ± 0.96 µM.
For the compound `CC(C)C1=CC23CCC4C(C)(C(=O)O)CCCC4(C)C2CC1C1=C3C(=O)C=CC1=O` (stereo not drawn) [Compound 40, 1a,4a-dehydroquinopimaric acid], the concentration for half-maximal inhibition (IC50) in data set [1] (setting [3]) is 7.09 ± 0.12 µM.
In the case of `COC(=O)[C@]1(C)CCC[C@@]2(C)[C@H]1CC[C@]13C=C(C(C)C)[C@H](C[C@H]21)C1=C3C(=O)C=CC1=O` [Compound 41, 1a,4a-dehydroquinopimaric acid methyl ester], the IC50 in data set [1] (setting [3]) is above 255 µM.
Turning to `CCOC(=O)c1c(C)[nH]c2c3c(c(O)cc12)C1CC2C3(C=C1C(C)C)CCC1C(C)(C(=O)O)CCCC12C` (stereo not drawn) [Compound 42, 1-Hydroxy-13-isopropyl-1′-(ethoxycarbonyl)-7,10a,2′-trimethyl-5,6,6b,7,8,9,10,10a, 10b,11,12,13-dodecahydro-12,4b-ethenophenanthro-[2,1-g]indole-7-carboxylic acid], the melting point fell in the range of 131 to 133 °C. In data set [1] (setting [3]), this compound came in with a half-inhibitory concentration (IC50) of 2.52 ± 0.34 µM. In addition, in data set [1], the “α-GLy inhibitory activity, in words” value was “very good activity”.
Consider `CCOC(=O)c1c(C)[nH]c2c3c(c(O)cc12)[C@H]1C[C@@H]2[C@@]4(C)CCC[C@@](C)(C(=O)OC)[C@@H]4CC[C@@]32C=C1C(C)C` [Compound 43, Methyl 1-Hydroxy-13-Isopropyl-1′-(Ethoxycarbonyl)-7,10a,2′-Trimethyl-5,6,6b,7,8,9,10,10a,10b,11,12,13-Dodecahydro-12,4b-Ethenophenanthro-[2,1-g]indole-7-Carboxylate], for which the IC50 in data set [1] (setting [3]) is above 255 µM.
The compound `Cc1[nH]c2c3c(c(O)cc2c1C#N)[C@H]1C[C@@H]2[C@@]4(C)CCC[C@@](C)(C(=O)O)[C@@H]4CC[C@@]32C=C1C(C)C` [Compound 44, 1′-Cyano-1-hydroxy-13-isopropyl-7,10a,2′-trimethyl-5,6,6b,7,8,9,10,10a,10b,11,12,13-dodecahydro-12,4b-ethenophenanthro [2,1-g]indole-7-carboxylic acid] displayed a melting point of 127 to 129 °C. The same compound showed a half-maximal inhibitory concentration (IC50) in data set [1] (setting [3]) of 68.22 ± 0.03 µM. The “α-GLy inhibitory activity, in words” value in data set [1] is listed as “very good activity”.
Consider `C#CCOC(=O)C1(C)CCCC2(C)C1CCC13C=C(C(C)C)C(CC12)c1c(O)cc2c(C(=O)OCC)c(C)[nH]c2c13` (stereo not drawn) [Compound 46, Ethyl 7-propynyl 1-hydroxy-13-isopropyl-7,10a,2′-trimethyl-5,6,6b,7,8,9,10,10a,10b, 11,12,13-dodecahydro-12,4b-ethenophenanthro [2,1-g]indole-7,1′-dicarboxylate], for which the melting point is 98 to 100 °C. In data set [1] (setting [3]), this compound registered an IC50 above 255 µM.
On the same counts, the results for `COC(=O)c1c(C)[nH]c2c3c(c(OCCC#N)cc12)C1CC2C3(C=C1C(C)C)CCC1C(C)(C(=O)OC)CCCC12C` (stereo not drawn) [Compound 47, Methyl 1-(8′-cyanoethoxy)-13-isopropyl-1′-(ethoxycarbonyl)-7,10a,2′-trimethyl-5,6,6b,7,8,9,10,10a,10b,11,12,13-dodecahydro-12,4b-ethenophenanthro [2,1-g]indole-7-carboxylate] are 127 to 129 °C and 4.95 ± 0.25 µM.
For the compound `CC(C)C1=CC23CCC4C(C)(C(=O)O)CCCC4(C)C2CC1c1c(O)ccc(O)c13` (stereo not drawn) [Compound 49], in data set [1] (setting [3]), the IC50 is above 255 µM.
In the case of `O=c1c(O)c(-c2ccc(O)c(O)c2)oc2cc(O)cc(O)c12` [Quercetin, reference compound], the “IC50 values, antioxidant test (DPPH)” value in data set [2] stood at 8.01 ± 0.15 µg/mL (≈ 26.5 µM).
